# ChEMBL document CHEMBL3421545, “Discovery of novel non-covalent inhibitors selective to the β5-subunit of the human 20S proteasome” (Eur J Med Chem, 2015)
# Key:
# [1] = Inhibition of chymotrypsin-like activity of 20S proteasome isolated from human THP1 cells using Suc-Leu-Leu-Val-Tyr-MCA as substrate by fluorometer analysis; assay type: cell-free; conditions: thp-1
# [2] = target: T1, Proteasome Macropain subunit MB1 (Homo sapiens, UniProt P28074); test: Inhibition of chymotrypsin-like activity of human beta-5 subunit of 20S proteasome using Suc-LLVY-AMC as substrate by fluorometer analysis
# T1 sequence (P28074 whole entry): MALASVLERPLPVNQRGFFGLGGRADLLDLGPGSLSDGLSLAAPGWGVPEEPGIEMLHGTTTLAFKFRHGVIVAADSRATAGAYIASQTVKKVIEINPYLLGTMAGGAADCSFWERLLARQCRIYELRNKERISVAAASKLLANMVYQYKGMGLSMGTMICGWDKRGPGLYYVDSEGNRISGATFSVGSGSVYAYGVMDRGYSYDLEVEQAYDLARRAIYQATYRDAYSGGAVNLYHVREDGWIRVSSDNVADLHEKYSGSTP
# [3] = target: Proteasome subunit beta type-6, β1, caspase-like (Homo sapiens) (UniProt P28072); test: Inhibition of caspase-like activity of human beta-1 subunit of 20S proteasome using (Z)-LLE-bNA as substrate at 10 ug/ml by fluorometer analysis
# Chain of Proteasome subunit beta type-6, β1, caspase-like (Homo sapiens) (P28072 whole entry, looked up): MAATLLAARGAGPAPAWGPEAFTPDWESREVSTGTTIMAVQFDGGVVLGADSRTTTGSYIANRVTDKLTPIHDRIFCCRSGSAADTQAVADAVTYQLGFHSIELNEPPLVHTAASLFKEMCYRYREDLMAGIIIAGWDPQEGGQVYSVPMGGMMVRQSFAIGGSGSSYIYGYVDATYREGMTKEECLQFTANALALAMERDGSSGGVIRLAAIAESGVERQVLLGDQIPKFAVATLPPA
# [4] = target: Proteasome subunit beta type-7, β2, trypsin-like (Homo sapiens) (UniProt Q99436); test: Inhibition of trypsin-like activity of human beta-2 subunit of 20S proteasome using Bz-VGR-AMC as substrate at 10 ug/ml by fluorometer analysis
# Chain of Proteasome subunit beta type-7, β2, trypsin-like (Homo sapiens) (Q99436 whole entry, looked up): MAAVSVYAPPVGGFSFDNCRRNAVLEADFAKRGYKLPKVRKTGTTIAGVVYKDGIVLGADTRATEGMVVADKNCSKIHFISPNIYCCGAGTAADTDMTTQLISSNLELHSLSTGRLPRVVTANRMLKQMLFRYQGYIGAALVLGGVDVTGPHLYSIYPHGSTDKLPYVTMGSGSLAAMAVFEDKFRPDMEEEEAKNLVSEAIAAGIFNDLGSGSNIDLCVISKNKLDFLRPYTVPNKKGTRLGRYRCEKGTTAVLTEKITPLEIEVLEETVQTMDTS
smiles,measurement,setting,value
C/C=C\NC(=O)[C@H]1NC(=O)[C@@H](CC(N)=O)NC(=O)[C@@H](NC(=O)C(=O)[C@@H](C)CC)Cc2ccc(O)c(c2)-c2cccc3c2NC(=O)[C@@]3(O)[C@@H]1O,IC50,[1],0.0054 µM
CC(C)[C@H](NC(=O)[C@H](CC(N)=O)NC(=O)Cc1cccc(Oc2ccccc2)c1)C(=O)NCCc1ccccc1,IC50,[2],Not Active
COc1ccc(CNC(=O)[C@@H](NC(=O)[C@H](CC(N)=O)NC(=O)Cc2cccc(Oc3ccccc3)c2)C(C)C)c(O)c1,inhibition,[3],< 50%
same,IC50,[2]; read-out: IC50,0.66 µM
same,inhibition,[4],< 50%
COc1ccc(CNC(=O)[C@@H](NC(=O)[C@H](CCCCN)NC(=O)Cc2cccc(Oc3ccccc3)c2)C(C)C)c(O)c1,IC50,[2],Not Active
CC(C)[C@H](NC(=O)[C@H](CC(N)=O)NC(=O)Cc1cccc(Oc2ccccc2)c1)C(=O)NCCO,IC50,[2]; read-out: IC50,17.2 µM
CC(C)[C@H](NC(=O)[C@H](CC(N)=O)NC(=O)Cc1cccc(Oc2ccccc2)c1)C(=O)OCc1ccccc1,IC50,[2]; read-out: IC50,17.3 µM
COc1ccc(CNC(=O)[C@@H](NC(=O)[C@H](CCC(N)=O)NC(=O)Cc2cccc(Oc3ccccc3)c2)C(C)C)c(O)c1,IC50,[2]; read-out: IC50,1.63 µM
CC(C)[C@H](NC(=O)[C@H](CC(N)=O)NC(=O)Cc1cccc(Oc2ccccc2)c1)C(=O)N[C@@H](C)c1ccccc1,IC50,[2],Not Active
COc1ccc(CNC(=O)[C@@H](NC(=O)[C@H](CC(N)=O)NC(=O)Cc2cccc(Oc3ccccc3)c2)C(C)C)c(OC)c1,IC50,[2],Not Active
CCCNC(=O)[C@@H](NC(=O)[C@H](CC(N)=O)NC(=O)Cc1cccc(Oc2ccccc2)c1)C(C)C,IC50,[2]; read-out: IC50,13 µM
CC(C)[C@H](NC(=O)[C@H](CC(N)=O)NC(=O)Cc1cccc(Oc2ccccc2)c1)C(=O)N[C@H](C(=O)OCc1ccccc1)[C@H](C)O,inhibition,[3],< 50%
same,IC50,[2]; read-out: IC50,0.92 µM
same,inhibition,[4],< 50%
CC(C)[C@H](NC(=O)[C@H](CC(N)=O)NC(=O)Cc1cccc(Oc2ccccc2)c1)C(=O)O,IC50,[2],Not Active
CC(C)[C@H](NC(=O)[C@H](CC(N)=O)NC(=O)Cc1cccc(Oc2ccccc2)c1)C(=O)N[C@H](C)c1ccccc1,IC50,[2],Not Active
COC(=O)[C@@H](NC(=O)[C@@H](NC(=O)[C@H](CC(N)=O)NC(=O)Cc1cccc(Oc2ccccc2)c1)C(C)C)[C@H](C)O,inhibition,[3],< 50%
same,IC50,[2]; read-out: IC50,0.29 µM
same,inhibition,[4],< 50%
COc1ccc(CNC(=O)[C@@H](NC(=O)[C@H](CCCCNC(=O)OCc2ccccc2)NC(=O)Cc2cccc(Oc3ccccc3)c2)C(C)C)c(O)c1,IC50,[2]; read-out: IC50,11.7 µM
CC(C)[C@H](NC(=O)[C@H](CC(N)=O)NC(=O)Cc1cccc(Oc2ccccc2)c1)C(=O)N[C@H](C(=O)O)[C@H](C)O,IC50,[2]; read-out: IC50,13.9 µM
